Source: patent US20220160750A1, “SINGLE-NUCLEI CHARACTERIZATION OF AMYOTROPHIC LATERAL SCLEROSIS FRONTAL CORTEX” (President and Fellows of Harvard College, priority 2020, published 2022)
Where a SMILES comes first, the peptide text is derived from it. The star is where a group is joined. Cbz = O=C(OCc1ccccc1)*

Tests used:
[1] = system: neurons derived from human Pluripotent Stem Cells (hPSC); assay: TDP-43 localisation (immunofluorescence) after proteasome inhibitor treatment of hPSC-derived neurons; type: cell-based; conditions: MG132 applied for 24 hrs
Experimental: (§1) In contrast, DEGs identified in THY1-cells were connected to cellular stresses previously associated with ALS^1,2 (FIG. 7D) and many were shared with transcriptional changes identified in patients' excitatory cells as a whole (FIG. 8B). […] It was next asked if aspects of these changes could be modeled in vitro using neurons derived from human Pluripotent Stem Cells (hPSC) (FIG. 15A).
Human embryonic stem cells were cultured in mTESR (Stemcell technologies) on matrigel (Corning). Neurons were generated from HuES-3-Hb9:GFP based on the motor neuron differentiation protocol previously described^27. Upon completion of the differentiation protocol, cells were sorted via flow-cytometry based on GFP signal intensity to yield GFP-positive neurons that were plated on PDL/laminin-coated plates (Sigma, Life technologies). Neurons were maintained in Neurobasal medium (Life Technologies) supplemented with N2 (Stemcell technologies), B27 (Life technologies), glutamax (Life technologies), non-essential amino acids (Life technologies), and neurotrophic factors (BDNF, GDNF, CNTF), and were grown for 28 days before the application of the proteasome inhibitors MG132 for 24 hrs.

[2] = system: neurons derived from human Pluripotent Stem Cells (hPSC); assay: Bulk RNA-sequencing of hPSC-derived neurons after proteasome inhibitor treatment; type: cell-based; conditions: MG132 applied for 24 hrs, compared with excitatory neurons from sALS patients
Experimental: as §1
Human embryonic stem cells were cultured in mTESR (Stemcell technologies) on matrigel (Corning). Neurons were generated from HuES-3-Hb9:GFP based on the motor neuron differentiation protocol previously described^27. Upon completion of the differentiation protocol, cells were sorted via flow-cytometry based on GFP signal intensity to yield GFP-positive neurons that were plated on PDL/laminin-coated plates (Sigma, Life technologies). […]
RNA was extracted using RNeasy Plus kit (Qiagen), libraries were prepared using the Illumina TruSeq RNA kit v2 according to the manufacturer's directions, and sequenced at the Broad Institute core with samples randomly assigned between two flow chambers. […] The read counts were obtained from the aligned BAM-files in R using Rsubread. Differential gene expression was analyzed from the read counts in DESeq2 using a Wald's test for the treatment dosage and controlling for the sequencing flow cell.

Question: What does the source list for `CC(C)C[C@@H](C=O)NC(=O)[C@H](CC(C)C)NC(=O)[C@H](CC(C)C)NC(=O)OCc1ccccc1` [MG132] (Cbz-Leu-Leu-Leu-aldehyde)?
Answer: nuclear loss of TDP-43 [1]: sufficient to induce nuclear loss of TDP-43; transcriptomic changes after treatment (RNA-sequencing) [2]: widespread transcriptomic changes after treatment
